Measured values from patent EP1240898A2, “Use of 2-deoxy ecdysterone for the preparation of a medicament for inducing labour or abortion” (Council of Scientific and Industrial Research, priority 2000, dated 2001).

How the values were obtained:
[1] = radiolabelled, injected into human volunteers, within 5 hours; cited from earlier work
guinea pig uterus = experiment: Oxytocic activity on isolated guinea pig uterus (height of contraction compared with standard oxytocin or PGF2α); assay type: cell-based; conditions: at the concentration of 200 µg/ml

In the case of CCCCC[C@H](O)/C=C/[C@H]1[C@H](O)CC(=O)[C@@H]1C/C=C\CCCC(=O)O [PGE2], the “radioactivity excreted in the urine” value [1] is listed as “about 50%”.

For CC(C)(O)CC[C@@H](O)[C@](C)(O)[C@H]1CC[C@@]2(O)C3=CC(=O)[C@@H]4C[C@@H](O)CC[C@]4(C)[C@H]3CC[C@]12C [2-deoxy ecdysterone], the “potency compared with the standards (in words)” value (guinea pig uterus) was “more potent than the standard oxytocin and PGF2α”.

For CCCCC[C@H](O)/C=C/[C@@H]1[C@@H](C/C=C\CCCC(=O)O)[C@@H](O)C[C@H]1O [PGF2α], the “radioactivity excreted in the urine” value [1] is listed as “around 90%”.
